Results reported in article PMC3630250 (Clinical cancer research : an official journal of the …, 2013).

Key:
[1] = tested on: IκBα phosphorylation in HEK293 cells; test: IκBα phosphorylation after TNFα stimulation; format: cell-based; conditions: HEK293, 5 and 10 min after TNFα stimulation
mice = conditions: cited from earlier work
Balb/c mice = conditions: twice daily for 4 days; cited from earlier work

Compound	inhibition of IκBα phosphorylation and degradation at early time points [1]	toxicity in mice (mice)	granulocytosis and LPS-induced mortality (Balb/c mice)
NC(=O)Nc1sc(-c2ccc(F)cc2)cc1C(N)=O [TPCA1]	complete inhibition	showed toxicity in mice	
COc1c(Cl)cc2c([nH]c3cnccc32)c1NC(=O)c1cccnc1C [ML-120B]		showed toxicity in mice	resulted in granulocytosis and LPS-induced mortality
